Converted amounts (≈) assume the structure as drawn. Where two headings read alike, the source gives them in different places.
What was measured:
HCC827 Cell = assay: Cell proliferation assay (MTT); type: cell-based; details: Homo sapiens, 72 hours treatment
Description: (§1) A Representative Number of Compounds were Assayed Against Different Cancer Cell Lines Such as HCC827 and NCI-H69 Using the Cell Proliferation Assays:
(§2) Cell Proliferation Assays:
(§3) 1. 5×10^3 cells per well in 100 μl of medium were seeded in 96-well plate, while the medium here contained 5% FBS.
(§4) 2. 24 hours later, 100 μl fresh medium was added with various concentrations of compounds into each well, while the medium here was free of FBS.
(§5) 3. After the cells were treated with compounds for 72 hours, 20 μl MTT (5 mg/ml) was added into each well, and then the assay plate was incubated at 37° C. for 4 more hours.
(§6) 4. The assay plate was centrifuged at 800 g for 10 min. The medium was aspirated, 150 μl DMSO was added into each well. The plate was gently shaken for 10 min.
(§7) 5. The absorbance at 570 nm was measured on the plate reader.

NCI-H69 Cell = assay: Cell proliferation assay (MTT); type: cell-based; details: Homo sapiens, 72 hours treatment
Description: as §1, §2, §3, §4, §5, §6, §7

ERBB4 = molecular target: T1, ERBB4 (Homo sapiens, UniProt Q15303); assay: In vitro kinase assay (kinase-tagged phage, affinity beads, qPCR); type: binding; details: Table A
T1 construct: made in house; host or cells: E. coli BL21-derived host (T7 phage) or HEK-293 cells
Description: (§8) An In Vitro Assay which Determines the Ability of a Test Compound to Inhibit Kinase:
(§9) Kinase-tagged T7 phage strains were prepared in an E. coli host derived from the BL21 strain. E. coli were grown to log-phase and infected with T7 phage and incubated with shaking at 32° C. until lysis. The lysates were centrifuged and filtered to remove cell debris. The remaining kinases were produced in HEK-293 cells and subsequently tagged with DNA for qPCR detection. Streptavidin-coated magnetic beads were treated with biotinylated small molecule ligands for 30 minutes at room temperature to generate affinity resins for kinase assays. The liganded beads were blocked with excess biotin and washed with blocking buffer (SeaBlock (Pierce), 1% BSA, 0.05% Tween 20, 1 mM DTT) to remove unbound ligand and to reduce non-specific binding. […] All reactions were performed in polystyrene 96-well plates in a final volume of 0.135 ml. […] The kinase concentration in the eluates was measured by qPCR.

[1] = molecular target: T2, EGFR(L747-E749del, A750P) (Homo sapiens, UniProt P00533, A750P/DEL747-749); assay: as above; type: binding
T2 construct: made in house; host or cells: E. coli BL21-derived host (T7 phage) or HEK-293 cells
Description: as §8, §9

[2] = Rate of metabolism in rat whole blood; type: in vitro ADME; details: for rate of metabolism (k) in Rat whole blood: 1.0 μM, 37° C., 0-2 h
Description: A Representative Number of Compounds were Tested in Rat Whole Blood to Measure Rate of Metabolism.
Preparation of Stock Solutions: Stock solution of test compound was provided in 100% DMSO. The stock solution for each compound was diluted into 500 μM with a mixture of acetonitrile: PBS buffer (2:8) and then diluted into rat blood (pH 7.4) to achieve a final concentration of 1.0 μM.
Incubation: 1.0 μM of test compound in duplicate was incubated in blood at 37° C. Aliquots of 50 μL sample were collected at 0 h, 0.25 h, 0.5 h, 1 h, and 2 h.
Sample preparation: Reactions were terminated at various time points (0, 0.25, 0.5, 1, 2 h) by adding 150 μL of ice-cold acetonitrile containing an internal standard. Centrifuge the plate (4000 rpm, 15 min). 100 μL of supernatants were transferred into a daughter plate containing 200 μL of H2O and 0.1% formic acid (v/v) in each well. The samples were analyzed with UPLC-MS/MS.
Data analysis: The peak area ratio of test compound to internal standard is plotted as a percentage of the relevant zero time point control (% Remained) for each reaction. The rate of metabolism (k) is the slope of the linear regression from log percentage remaining versus incubation time. The T½ is calculated as −0.693/k.

[3] = Solubility measurement (HPLC); type: physicochemical; details: for solubility at 30 min: aqueous buffer, thermodynamic from solid, 25° C.
Description: The compound was diluted with acetonitrile to 100 mL.
The solution was shook for 2 minutes and left for 30 minutes at 25° C. After standing for 30 minutes, precipitate was formed in the bottom of the EP. The solutions was filtered through 0.2 μm membrane filter, and then diluted by 50 times with water.
The standard and sample solutions were injected into the HPLC on a Shim-Pack CLC-ODS C18 column (150 mm×6.0 mm, 5 um) with the same volume. The mobile phase consisted of acetonitrile with 2% trichloromethane-20 mM KH2PO4 buffer (pH=7.0) at a flow rate of 1 mL/minutes (40:60). The detection wavelength is at 264 nm. Calculation: solubility of sample=the concentration of standard×Area of sample×50/Area of standard.

CYP 3A4 = molecular target: T3, CYP 3A4 (Homo sapiens, UniProt P08684); assay: P450 3A4 assay in human liver microsomes; type: in vitro ADME; details: for IC50: probe substrate testosterone
T3 construct: Incubation mixtures in duplicate contain pooled human liver microsome (0.1 mg/mL); from tissue; host or cells: pooled human liver microsomes
Description: The final concentrations of DMSO and acetonitrile were equal or less than 0.1%.
The column temperature was maintained at ambient temperature (25° C.). […] The flow rate was maintained at 0.6 mL/min.

[4] = pH 7.0 buffer solution (20 mM), pH 7.0 buffer (20 mM), read-out: Solubility at pH 7.0
[5] = pH 10.0 buffer solution (20 mM), pH 10.0 buffer (20 mM), read-out: Solubility at pH 10.0

T3 sequence (P08684 whole entry): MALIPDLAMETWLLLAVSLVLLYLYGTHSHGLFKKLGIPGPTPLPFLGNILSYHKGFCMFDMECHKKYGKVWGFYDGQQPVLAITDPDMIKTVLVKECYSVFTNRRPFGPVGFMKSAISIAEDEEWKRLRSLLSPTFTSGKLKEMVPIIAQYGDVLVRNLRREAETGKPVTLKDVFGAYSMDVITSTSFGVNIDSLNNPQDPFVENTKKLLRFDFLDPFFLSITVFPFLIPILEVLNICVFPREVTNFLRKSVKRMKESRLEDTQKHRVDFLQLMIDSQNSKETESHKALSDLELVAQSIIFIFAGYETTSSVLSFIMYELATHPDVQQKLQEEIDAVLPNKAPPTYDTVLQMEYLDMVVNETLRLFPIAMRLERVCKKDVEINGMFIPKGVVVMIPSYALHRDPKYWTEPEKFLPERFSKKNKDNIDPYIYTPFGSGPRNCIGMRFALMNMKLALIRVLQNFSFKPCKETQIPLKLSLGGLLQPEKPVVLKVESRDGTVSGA
T2 sequence (P00533 with tags, fused parts or gaps DEL747-749/A750P): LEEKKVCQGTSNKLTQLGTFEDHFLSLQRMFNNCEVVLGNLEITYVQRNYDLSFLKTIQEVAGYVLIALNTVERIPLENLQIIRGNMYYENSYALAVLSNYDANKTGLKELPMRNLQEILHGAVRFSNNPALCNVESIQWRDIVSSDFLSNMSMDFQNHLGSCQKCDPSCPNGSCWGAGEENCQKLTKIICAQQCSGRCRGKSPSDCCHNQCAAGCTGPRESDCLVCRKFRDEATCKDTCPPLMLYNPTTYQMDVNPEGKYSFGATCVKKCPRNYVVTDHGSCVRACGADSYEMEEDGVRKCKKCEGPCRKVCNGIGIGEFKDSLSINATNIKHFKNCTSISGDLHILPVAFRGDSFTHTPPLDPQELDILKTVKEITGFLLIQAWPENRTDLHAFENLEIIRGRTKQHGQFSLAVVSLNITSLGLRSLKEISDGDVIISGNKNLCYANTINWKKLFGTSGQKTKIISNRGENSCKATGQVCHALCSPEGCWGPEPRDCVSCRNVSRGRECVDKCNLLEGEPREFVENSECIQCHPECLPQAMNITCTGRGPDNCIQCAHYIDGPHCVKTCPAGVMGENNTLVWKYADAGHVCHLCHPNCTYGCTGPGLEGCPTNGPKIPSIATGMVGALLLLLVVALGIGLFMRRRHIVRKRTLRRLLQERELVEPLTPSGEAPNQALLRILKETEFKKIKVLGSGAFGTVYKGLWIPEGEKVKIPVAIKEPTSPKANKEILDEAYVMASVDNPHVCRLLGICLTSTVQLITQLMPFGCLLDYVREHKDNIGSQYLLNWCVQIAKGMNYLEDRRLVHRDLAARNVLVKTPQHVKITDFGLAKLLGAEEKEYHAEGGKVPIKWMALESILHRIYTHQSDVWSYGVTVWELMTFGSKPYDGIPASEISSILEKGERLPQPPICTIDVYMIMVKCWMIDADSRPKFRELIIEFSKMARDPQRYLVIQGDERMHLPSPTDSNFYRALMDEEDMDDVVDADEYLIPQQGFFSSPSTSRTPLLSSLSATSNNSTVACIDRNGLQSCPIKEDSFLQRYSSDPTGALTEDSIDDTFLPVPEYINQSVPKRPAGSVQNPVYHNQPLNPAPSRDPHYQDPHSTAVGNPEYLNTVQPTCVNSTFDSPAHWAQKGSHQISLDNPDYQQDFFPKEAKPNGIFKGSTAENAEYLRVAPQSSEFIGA
T1 sequence (Q15303 26-1308): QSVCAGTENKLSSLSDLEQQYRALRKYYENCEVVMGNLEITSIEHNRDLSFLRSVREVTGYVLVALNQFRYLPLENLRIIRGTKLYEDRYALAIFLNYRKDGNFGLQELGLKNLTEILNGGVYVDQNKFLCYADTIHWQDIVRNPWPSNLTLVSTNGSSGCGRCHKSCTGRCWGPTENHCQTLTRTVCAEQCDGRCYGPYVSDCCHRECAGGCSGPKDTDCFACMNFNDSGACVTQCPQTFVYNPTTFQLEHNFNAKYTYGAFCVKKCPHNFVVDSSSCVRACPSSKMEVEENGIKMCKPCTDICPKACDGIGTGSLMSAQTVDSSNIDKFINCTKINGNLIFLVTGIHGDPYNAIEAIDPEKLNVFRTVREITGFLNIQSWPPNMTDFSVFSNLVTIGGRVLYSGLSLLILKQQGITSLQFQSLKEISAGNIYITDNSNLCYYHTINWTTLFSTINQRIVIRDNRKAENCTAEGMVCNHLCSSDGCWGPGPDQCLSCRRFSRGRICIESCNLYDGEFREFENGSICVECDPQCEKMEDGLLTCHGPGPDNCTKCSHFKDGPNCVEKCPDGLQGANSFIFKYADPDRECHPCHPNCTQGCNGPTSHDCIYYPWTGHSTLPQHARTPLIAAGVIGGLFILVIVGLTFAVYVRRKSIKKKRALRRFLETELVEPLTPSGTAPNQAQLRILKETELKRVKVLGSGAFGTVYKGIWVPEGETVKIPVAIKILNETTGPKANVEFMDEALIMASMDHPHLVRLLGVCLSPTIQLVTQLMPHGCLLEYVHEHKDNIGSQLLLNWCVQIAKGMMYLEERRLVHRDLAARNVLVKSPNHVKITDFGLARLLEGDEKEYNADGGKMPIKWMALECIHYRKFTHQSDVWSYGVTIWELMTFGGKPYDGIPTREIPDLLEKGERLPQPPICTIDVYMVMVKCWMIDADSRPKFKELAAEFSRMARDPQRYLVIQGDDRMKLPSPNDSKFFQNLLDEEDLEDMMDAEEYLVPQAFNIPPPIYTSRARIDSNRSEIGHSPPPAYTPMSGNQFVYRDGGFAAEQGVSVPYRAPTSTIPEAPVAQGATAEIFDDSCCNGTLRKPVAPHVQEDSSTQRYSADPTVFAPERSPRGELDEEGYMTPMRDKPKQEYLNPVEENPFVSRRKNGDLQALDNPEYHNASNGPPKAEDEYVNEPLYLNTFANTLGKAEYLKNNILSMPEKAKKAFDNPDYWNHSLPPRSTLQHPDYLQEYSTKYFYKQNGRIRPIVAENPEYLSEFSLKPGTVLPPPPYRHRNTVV

Row | SMILES | IC50 (HCC827 Cell) | IC50 (NCI-H69 Cell) | Kinase Inhibition ERBB4 (ERBB4) | inhibitor potency for mutant EGFR (L747-E749del, A750P) [1] | Kinase Inhibition EGFR(L747-E749del, A750P) ([1]; mutant EGFR, Table A) | rate of metabolism (k) in Rat whole blood [2] | K value compared with PF-06463922 and Compound 10 ([2]; rat whole blood, comparison in words) | solubility compared with compound A at pH=7.0 ([3]; pH 7.0, comparison in words) | solubility at 30 min [3, 4] | solubility at 30 min [3, 5] | IC50 (CYP 3A4) | Cytochrome P450 3A4 inhibition (DDI risk class) (CYP 3A4)
1 | C[C@H]1Oc2cc(cnc2NC(=O)CN)-c2c(nn(C)c2C#N)CN(C)C(=O)c2ccc(F)cc21 [Compound 6, (10R)-7-(2-aminoacetyl)amino-12-fluoro-2,10,16-trimethyl-15-oxo-10,15,16,17-tetrahydro-2H-8,4-(metheno)pyrazolo[4,3-h][2,5,11]-benzoxadiazacyclotetradecine-3-carbonitrile] | 65.6 µM | 77.1 µM | 5.7 µM | 0.42 µM | 0.4 µM | 0.6169 | much larger K value | much higher solubility | 91 µg/mL (≈ 196 µM) | 36 µg/mL (≈ 77.7 µM) | 10 µM | –
2 | CC(=O)Nc1ncc2cc1O[C@H](C)c1cc(F)ccc1C(=O)N(C)Cc1nn(C)c(C#N)c1-2 [Compound 10, (10R)-7-acetamido-12-fluoro-2,10,16-trimethyl-15-oxo-10,15,16,17-tetrahydro-2H-8,4-(metheno)pyrazolo[4,3-h][2,5,11]-benzoxadiazacyclotetradecine-3-carbonitrile] | – | – | – | – | – | 0.07435 | – | – | – | – | 14 µM | –
3 | C[C@H]1Oc2cc(cnc2N)-c2c(nn(C)c2C#N)CN(C)C(=O)c2ccc(F)cc21 [Compound A, (10R)-7-amino-12-fluoro-2,10,16-trimethyl-15-oxo-10,15,16,17-tetrahydro-2H-8,4-(metheno)pyrazolo[4,3-h][2,5,11]-benzoxadiazacyclotetradecine-3-carbonitrile, reference compound] | – | – | – | – | – | −0.07473 | – | – | 29 µg/mL (≈ 71.4 µM) | 28 µg/mL (≈ 68.9 µM) | – | moderate (3 μM<IC50<10 μM CYP inhibition moderate)

Source: patent US10159663B2, “Substituted macrocycles useful as kinases inhibitors and methods of use thereof” (TELIGENE LTD., priority 2014, dated 2018)
